Laboratory results as given in ChEMBL document CHEMBL3639112, “Modulators of calcium release-activated calcium channel and methods for treatment of non-small cell lung cancer” (2015).

Target: Calcium release-activated calcium channel protein 1 (Homo sapiens, UniProt Q96D31)
Assay: Inhibition Assay: Inhibition of CRAC channels was determined following thapsigargin (Sigma, Cat # T9033) induced endoplasmic calcium release in Jurkat cells. (see Yasurio Yonetoky et. al Bio. & Med. Chem. 14 (2006) 4750-4760). Cells were centrifuged and resuspended in equal volumes f Ca2+ and Mg2+ free Hanks buffer and Fluo-8 NW dye (ABD Bioquest, Inc., Sunnyvale, Calif.) loading solution at 2x10^5 cells/100 ul/well in 96-well black plate. Plate is incubated at 37 C./5% CO2 […] followed by further […] at room temperature. Test compounds (DMSO stocks diluted in Ca2+ and Mg2+ free Hanks buffer) at desired concentrations were added to the wells and […]. Thapsigargin (1 uM final concentration) was added to the wells and incubated for 15 min to inhibit the Sarco-endoplasmic reticulum Ca2+ ATPase pump thereby depleting endoplasmic calcium and raising cytosolic calcium concentrations. Store-operated calcium entry was initiated by adding extracellular Ca2+.
Format: cell-based

Calcium release-activated calcium channel protein 1, sequence (Q96D31 whole entry): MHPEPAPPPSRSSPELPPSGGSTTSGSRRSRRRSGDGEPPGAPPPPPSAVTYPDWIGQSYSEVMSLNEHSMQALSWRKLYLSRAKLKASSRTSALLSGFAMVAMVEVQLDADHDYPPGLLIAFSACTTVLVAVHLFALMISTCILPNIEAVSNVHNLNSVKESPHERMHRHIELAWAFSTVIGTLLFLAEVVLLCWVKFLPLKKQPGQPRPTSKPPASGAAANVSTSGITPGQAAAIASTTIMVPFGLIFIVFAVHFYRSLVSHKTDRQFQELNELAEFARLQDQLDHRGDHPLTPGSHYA

| IC50 | Structure (SMILES) |
| --- | --- |
| 86.1 nM | O=C(Nc1ccc(-n2nc(C(F)(F)F)cc2C2CC2)cc1)c1ccc2ncccc2c1 |
| 147 nM | O=C(Cc1ccc2ncccc2c1)Nc1ccc(-n2nc(C3CC3)cc2C2CC2)cc1 |
